Experimental findings from patent US10987349B2, “Antitumor agent and bromodomain inhibitor” (FUJIFILM Corporation, priority 2016, dated 2021) are described below.

Experiment [1] has as its target T1, BRD3 BD1 (Homo sapiens, UniProt Q15059).
T1 construct: BRD2 BD1, BRD3 BD1 and BRD4 BD1 (Cisbio); purchased Cisbio
The experiment in a line: Binding assay, BRD3 BD1 to acetylated histone H4 Peptide-Biotin (EPIgeneous Binding Domain Kit A). The note with it: for inhibition at 0.3 µM: test compound at 300 nmol/L, read-out: Binding inhibition percentage BRD3 BD1. The essentials: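 HTRF competition: bromodomain protein (added at 20 nmol/L) and biotinylated tetra-acetyl H4(1-25) peptide (added at 25 nmol/L) were incubated with compound, streptavidin-d2 and anti-GST Eu cryptate for 20 h at room temperature. Inhibition came from the 665/620 nm ratio relative to DMSO; IC50 by four-parameter fit; some compounds were tested only at 300 nmol/L final.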

Experiment [2] addresses T2, BRD3 BD2 (Homo sapiens, UniProt Q15059).
T2 construct: BRD2 BD2, BRD3 BD2 and BRD4 BD2 (Cisbio); purchased Cisbio
As to the kind of experiment: Binding assay, BRD3 BD2 to acetylated histone H4 Peptide-Biotin (EPIgeneous Binding Domain Kit B). As to conditions: for inhibition at 0.3 µM: test compound at 300 nmol/L, read-out: Binding inhibition percentage BRD3 BD2. The essentials: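 HTRF binding of GST-tagged BD2 (20 nmol/L working stock) to biotinylated acetyl-histone H4 peptide (250 nmol/L working stock), using streptavidin-XL665 and anti-GST Eu cryptate. Incubated 20 h at room temperature; 665/620 nm ratio versus DMSO gives % inhibition; IC50 by four-parameter fit, or % inhibition at 300 nmol/L.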

In experiment [3] the test system is human undifferentiated thymoma cell line Ty-82. As to the kind of experiment: Cell growth test (Cell Titer Glo) Ty-82. The class given is cell-based. The note with it: TY82, 3 to 5 days. From the text: (§1) The human undifferentiated thymoma cell line Ty-82 (JCRB), the human acute myeloid leukemia cell lines MV4-11 (ATCC), MOLM-13 (ATCC) and RS4-11 (ATCC), the human lymphoma cell line Raji (JCRB), the human cervical epidermoid carcinoma cell line Hela (JCRB), the human lung adenocarcinoma cell line A549 (ATCC), the human colon cancer cell lines DLD1 (DS Pharma) and HCT116 (DS Pharma), and the human pancreatic cancer cell line MIAPACA-2 (ATCC) were used to carry out a cell growth test.
Ty-82, MV4-11, MOLM-13, RS4-11, Raji and DLD1 were each seeded in a well plate, in which Roswell Park Memorial Institute (RPMI)-1640 medium supplemented with penicillin/streptomycin and fetal bovine serum (FBS) with a final concentration of 10% was placed. Hela was seeded in Dulbecco's Modified Eagle's medium (DMEM) supplemented with penicillin/streptomycin and FBS with a final concentration of 10%. A549 and MIAPACA-2 were each seeded in a well plate, in which Minimum Essential Medium (MEM) supplemented with penicillin/streptomycin and FBS with a final concentration of 10% was placed. HCT116 was seeded in a well plate, in which McCoy's 5A medium supplemented with penicillin/streptomycin and FBS with a final concentration of 10% was placed.
(§2) Thereafter, a medium containing a test compound serially diluted with DMSO, or DMSO, was added to each well of the plate, in which the cells had been seeded, and the obtained mixture was then cultured under conditions of 37° C. and 5% CO2 for 3 to 5 days. Cell Titer Glo reaction solution (Promega) was added to the culture, and the amount of luminescence was then measured using Envision plate reader (PerkinElmer). Since the amount of luminescence is in proportion to the concentration of adenosine triphosphate (ATP) in cells, the amount of luminescence was used as an indicator of the number of living cells. The growth inhibition percentage of the test compound in each concentration was calculated according to the following equation. Growth inhibition percentage (%)=(amount of luminescence in test compound−added well)/(amount of luminescence in DMSO−added well)×100
The growth inhibition percentage of the test compound in each concentration was plotted by performing a non-linear regression analysis [(log (inhibitor) vs. response—Variable slope (four parameters)], using Graphpad prism 5, and a 50% growth inhibitory concentration [GI50 (nmol/L)] was then calculated.
(In general: In ATP-based viability assays light output follows the ATP content of the culture.)

Experiment [4] concerns human colon cancer cell line HCT116. As to the kind of experiment: Cell growth test (Cell Titer Glo) HCT116. The class given is cell-based. The note with it: HCT-116, 3 to 5 days.
Text: as §1
Ty-82, MV4-11, MOLM-13, RS4-11, Raji and DLD1 were each seeded in a well plate, in which Roswell Park Memorial Institute (RPMI)-1640 medium supplemented with penicillin/streptomycin and fetal bovine serum (FBS) with a final concentration of 10% was placed. Hela was seeded in Dulbecco's Modified Eagle's medium (DMEM) supplemented with penicillin/streptomycin and FBS with a final concentration of 10%. A549 and MIAPACA-2 were each seeded in a well plate, in which Minimum Essential Medium (MEM) supplemented with penicillin/streptomycin and FBS with a final concentration of 10% was placed. […]
as §2, with “well)×100 […]” for “well)×100”

Experiment [5] has as its system MV4-11 subcutaneously transplanted tumor. The experiment in a line: Medicinal effect test, MV4-11-subcutaneously-transplanted cancer-bearing mouse models, oral administration. Type of experiment: in vivo. The note with it: orally, once per day, 14 days, BALB/c nu/nu mice. How it is done: The human acute myeloid leukemia cell line MV4-11 (ATCC) was suspended in a mixture of RPMI-1640 medium and Matrigel (Corning), and the obtained mixture was then subcutaneously transplanted into 6-week-old female BALB/c nu/nu mice (CLEA Japan, Inc.). After confirming that the average tumor volume exceeded 200 mm^3, a test compound was dissolved in a solvent (a 0.5% methyl cellulose aqueous solution or water containing 1 equivalent of hydrochloric acid), and the obtained solution was then orally administered to the mice at a daily dose of 10 to 30 mg/kg, once per day, for 14 days. As a negative control, a solvent administration group involving administration of a 0.5% methyl cellulose aqueous solution was established. The tumor diameter was measured on a daily basis, and the tumor volume was calculated. The tumor volume was calculated by measuring the major axis and minor axis of the tumor and then applying the following equation. Tumor volume (mm^3)=[major axis (mm)×minor axis (mm)×minor axis (mm)]/2
T/C (%) was calculated from the average tumor volume of each group according to the following equation, and medicinal effects were then evaluated. T/C(%)=[1−(average tumor volume of drug administration group)/(average tumor volume of solvent administration group)]×100%

T2 sequence (Q15059 306-415 limits assumed): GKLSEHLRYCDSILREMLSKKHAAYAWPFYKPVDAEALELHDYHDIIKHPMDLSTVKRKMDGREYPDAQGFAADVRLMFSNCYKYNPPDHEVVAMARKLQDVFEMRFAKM
T1 sequence (Q15059 34-140 limits assumed): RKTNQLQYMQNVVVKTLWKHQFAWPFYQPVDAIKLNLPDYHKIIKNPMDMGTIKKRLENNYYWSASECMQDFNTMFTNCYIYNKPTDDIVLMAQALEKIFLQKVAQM

Take `CCn1c(=O)cc(C2CCN(C)CC2)c2cc(C(=O)N(C)c3ccc(C)cc3)ccc21` [Example 14, 1-Ethyl-N-methyl-N-(4-methylphenyl)-4-(1-methylpiperidin-4-yl)-2-oxo-1,2-dihydroquinoline-6-carboxamide]: the values for the IC50 in experiment [1] and in experiment [2] were 4 nM and 70 nM, respectively. The inhibition (in general, the relative decrease from the control value, in per cent) at 0.3 µM came to 94% in experiment [1] and 83% in experiment [2]. The results for the GI50 in experiment [3] and in experiment [4] were 12 nM and 241 nM, respectively. Besides, the “T/C (%)” value in experiment [5] (10 mg/kg) is given as 34%; in experiment [5] (30 mg/kg), 45%.
Regarding `CCn1c(=O)cc(C2CCN(C)CC2)c2cc(C(=O)N(C)c3ccc4c(c3)CCC4)ccc21` [Example 17, N-(2,3-dihydro-1H-inden-5-yl)-1-ethyl-N-methyl-4-(1-methylpiperidin-4-yl)-2-oxo-1,2-dihydroquinoline-6-carboxamide], the IC50 (as a rule, the concentration that gives 50% inhibition) was 3 nM in experiment [1] and 14 nM in experiment [2]. For the same molecule, the inhibition at 0.3 µM in experiment [1] was determined as 94%; in experiment [2], 91%. Besides, the values for the GI50 in experiment [3] and in experiment [4] were 6 nM and 116 nM, respectively. The “T/C (%)” value in experiment [5] (10 mg/kg) is 21%; in experiment [5] (30 mg/kg) it was 49%.
Take `CCn1c(=O)cc(N2CCOCC2)c2cc(-n3c(-c4ccc(Cl)cc4)c[nH]c3=O)ccc21` [Example 245, 6-(5-(4-chlorophenyl)-2-oxo-2,3-dihydro-1H-imidazol-1-yl)-1-ethyl-4-(morpholin-4-yl)quinolin-2(1H)-one]: the figures for the IC50 in experiment [1] and in experiment [2] were 37 nM and 4 nM, respectively. Besides, the inhibition at 0.3 µM in experiment [1] turned out to be 90%; in experiment [2], 92%. The results for the GI50 in experiment [3] and in experiment [4] were 10 nM and 628 nM, respectively. Also, the “T/C (%)” value in experiment [5] (30 mg/kg) is reported as 42%.
